According to ChEMBL document CHEMBL5338792, “Degradation of Rat Sarcoma Proteins Targeting the Post-Translational Prenyl Modifications via Cascade Azidation/Fluorination and Click Reaction” (J Med Chem, 2023):
Values belong to the molecule of their own block, whether it stands above or below them. Calls of active or inactive are those of the source. The calls are words filed in the database; no cut-off is given here.

Columns and labels:
[1] = system: A549; assay: SarcPROTAC activity at VHL/RAS in TMSN3/Selectfluor-treated human A549 cells at 50 uM in presence of CuBr/TBTA incubated for 24 hrs by Western blot analysis; assay type: cell-based
[2] = system: HeLa; assay: SarcPROTAC activity at VHL/RAS in TMSN3/Selectfluor-treated human HeLa cells at 50 uM in presence of CuBr/TBTA incubated for 24 hrs by Western blot analysis; assay type: cell-based
[3] = target: T1, Protein cereblon/GTPase HRas/GTPase NRas/GTPase KRas (Homo sapiens) (UniProt P01112+P01111+P01116+Q96SW2); assay: SacrPROTAC activity at E3 ubiquitin ligase/RAS in TMSN3/Selectfluor-treated human HeLa cells assessed as induction of RAS degradation at 200 uM measured after 24 hrs in presence of propargyl pomalidomide by Western blot analysis; assay type: cell-based
T1 sequence (P01111 whole entry, looked up): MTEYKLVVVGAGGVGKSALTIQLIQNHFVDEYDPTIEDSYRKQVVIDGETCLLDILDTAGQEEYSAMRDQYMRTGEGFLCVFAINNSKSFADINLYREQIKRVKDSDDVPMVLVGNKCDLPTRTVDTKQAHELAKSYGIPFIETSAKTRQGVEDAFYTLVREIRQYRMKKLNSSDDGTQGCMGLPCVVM
T1 sequence (P01112 whole entry, looked up): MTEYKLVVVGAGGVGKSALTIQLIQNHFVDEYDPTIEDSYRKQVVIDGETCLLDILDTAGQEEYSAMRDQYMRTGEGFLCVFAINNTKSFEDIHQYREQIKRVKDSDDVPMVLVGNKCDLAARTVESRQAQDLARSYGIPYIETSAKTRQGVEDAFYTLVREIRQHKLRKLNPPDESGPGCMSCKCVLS
T1 sequence (P01116 whole entry, looked up): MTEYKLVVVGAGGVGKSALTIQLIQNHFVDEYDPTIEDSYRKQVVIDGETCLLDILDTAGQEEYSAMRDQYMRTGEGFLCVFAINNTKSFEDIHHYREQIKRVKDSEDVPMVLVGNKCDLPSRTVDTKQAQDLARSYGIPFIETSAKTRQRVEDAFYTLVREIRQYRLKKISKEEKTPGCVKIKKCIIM
T1 sequence (Q96SW2 whole entry, looked up): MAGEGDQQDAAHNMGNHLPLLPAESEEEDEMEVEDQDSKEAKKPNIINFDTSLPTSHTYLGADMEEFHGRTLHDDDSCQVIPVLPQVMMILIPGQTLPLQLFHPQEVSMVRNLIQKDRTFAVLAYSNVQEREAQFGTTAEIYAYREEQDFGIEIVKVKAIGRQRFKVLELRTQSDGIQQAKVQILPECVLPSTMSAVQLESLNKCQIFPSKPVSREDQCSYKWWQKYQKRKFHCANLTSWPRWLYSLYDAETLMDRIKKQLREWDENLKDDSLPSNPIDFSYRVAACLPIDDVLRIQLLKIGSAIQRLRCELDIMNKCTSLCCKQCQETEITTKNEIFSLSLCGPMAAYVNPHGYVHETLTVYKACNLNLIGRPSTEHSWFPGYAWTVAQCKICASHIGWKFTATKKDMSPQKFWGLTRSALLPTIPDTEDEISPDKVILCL

[4] = system: HT-29; assay: SacrPROTAC activity at E3 ubiquitin ligase/RAS in TMSN3/Selectfluor-treated human HT-29 cells assessed as induction of RAS degradation at 100 to 200 uM measured after 24 hrs by Western blot analysis; assay type: functional, cell-based; conditions: dose 100-200 µM
[5] = target: T1, Protein cereblon/GTPase HRas/GTPase NRas/GTPase KRas (Homo sapiens); assay: SacrPROTAC activity at E3 ubiquitin ligase/RAS in TMSN3/Selectfluor-treated human HeLa cells assessed as induction of RAS degradation at 200 uM measured after 24 hrs by Western blot analysis; assay type: cell-based
[6] = system: HeLa; assay: Induction of apoptosis in TMSN3/Selectfluor-treated human HeLa cells at 200 uM in presence of CuBr/TBTA incubated for 24 hrs by annexin V-FITC/PI staining based flow cytometry; assay type: functional, cell-based
[7] = target: T1, Protein cereblon/GTPase HRas/GTPase NRas/GTPase KRas (Homo sapiens); assay: SacrPROTAC activity at E3 ubiquitin ligase/RAS in TMSN3/Selectfluor-treated human HeLa cells assessed as induction of RAS degradation at 200 uM measured after 24 hrs in presence of methyl propargyl pomalidomide by Western blot analysis; assay type: cell-based
[8] = target: T1, Protein cereblon/GTPase HRas/GTPase NRas/GTPase KRas (Homo sapiens); assay: SacrPROTAC activity at E3 ubiquitin ligase/RAS in TMSN3/Selectfluor-treated human HeLa cells assessed as induction of RAS degradation at 200 uM measured after 24 hrs in presence of PYR-41 by Western blot analysis; assay type: cell-based
[9] = system: HT-29; assay: SacrPROTAC activity at E3 ubiquitin ligase/RAS in TMSN3/Selectfluor-treated human HT-29 cells assessed as induction of RAS degradation at 100 to 200 uM measured for 12 to 24 hrs by Western blot analysis; assay type: functional, cell-based; conditions: dose 100-200 µM, time 12-24 hrs
[10] = system: HeLa; assay: Downregulation of HRAS in TMSN3/Selectfluor-treated human HeLa cells at 50 to 200 uM incubated for 24 hrs in presence of CuBr/TBTA by TMT mass spectrometric analysis; assay type: functional, cell-based; conditions: dose 50-200 µM
[11] = system: MCF7; assay: SacrPROTAC activity at E3 ubiquitin ligase/RAS in TMSN3/Selectfluor-treated human MCF7 cells assessed as induction of RAS degradation at 200 uM measured after 24 hrs by Western blot analysis; assay type: functional, cell-based
[12] = system: HeLa; assay: Upregulation of GSTP1 in TMSN3/Selectfluor-treated human HeLa cells at 50 to 200 uM incubated for 24 hrs in presence of CuBr/TBTA by TMT mass spectrometric analysis; assay type: functional, cell-based; conditions: dose 50-200 µM
[13] = target: T1, Protein cereblon/GTPase HRas/GTPase NRas/GTPase KRas (Homo sapiens); assay: SacrPROTAC activity at E3 ubiquitin ligase/RAS in TMSN3/Selectfluor-treated human HeLa cells assessed as induction of RAS degradation incubated for 24 hrs by Western blot analysis; assay type: cell-based; conditions: dose <= 200.0 µM
[14] = target: T1, Protein cereblon/GTPase HRas/GTPase NRas/GTPase KRas (Homo sapiens); assay: SacrPROTAC activity at E3 ubiquitin ligase/RAS in TMSN3/Selectfluor-treated human HeLa cells assessed as induction of RAS degradation at 75 uM incubated for >48 hrs by Western blot analysis; assay type: cell-based
[15] = system: MCF7; assay: SacrPROTAC activity at E3 ubiquitin ligase/RAS in TMSN3/Selectfluor-treated human MCF7 cells assessed as induction of RAS degradation at 200 uM measured upto 48 hrs by Western blot analysis; assay type: functional, cell-based
[16] = system: HT-29; assay: Inhibition of […] in TMSN3/Selectfluor-treated human HT-29 cells upto 200 uM in presence of CuBr/TBTA by CCK8 assay; assay type: functional, cell-based
[17] = system: A549; assay: SacrPROTAC activity at E3 ubiquitin ligase/RAS in TMSN3/Selectfluor-treated human A549 cells assessed as induction of RAS degradation at 200 uM measured for 48 hrs by Western blot analysis; assay type: functional, cell-based

Structure (SMILES): C#CCCOC(=O)N[C@H](C(=O)N1C[C@H](O)C[C@H]1C(=O)NCc1ccc(-c2scnc2C)cc1)C(C)(C)C
- Activity [1]: Active
- Activity [2]: Active

- Activity [3]: inactive
Structure (SMILES): C#CCNCC(=O)Nc1cccc2c1C(=O)N(C1CCC(=O)N(C)C1=O)C2=O (configuration not stated)

- Activity [5]: Active
- Activity [7]: Active
- Activity [8]: inactive
- Activity [13]: Dose-Dependent Effect
- Activity [14]: Active
Structure (SMILES): C#CCNCC(=O)Nc1cccc2c1C(=O)N(C1CCC(=O)NC1=O)C2=O (configuration not stated)
- Activity [4]: Active
- Activity [6]: Active
- Activity [9]: Active
- Activity [10]: Active
- Activity [11]: Active
- Activity [12]: Active
- Activity [15]: inactive
- inhibition [16]: Active
- Activity [17]: Active
